Test results from patent US10660874B2, “Ecteinamycin, compositions and uses thereof” (Wisconsin Alumni Research Foundation, priority 2014, dated 2020).
In brackets after ≈: the same amount, converted by molar mass.

Experiments:
MSSA (ATCC #29213) = experiment: MIC, dilution antimicrobial susceptibility test; assay type: cell-based, Methicillin-sensitive Staphylococcus aureus; conditions: Methicillin-sensitive Staphylococcus aureus (MSSA); 33° C., 18 h; read-out: MIC
Protocol: (§1) Ecteinamycin was tested for antibacterial activity against C. difficile (ATCC BAA-1870), MRSA (ATCC #33591), MSSA (ATCC #29213), E. coli (ATCC #25922), P. aeruginosa (ATCC #27853), and VRE (ATCC), and MICs were determined using a dilution antimicrobial susceptibility test for aerobic (MRSA, MSSA, E. coli, P. aeruginosa, and VRE) and anaerobic (C. difficile) bacteria. Ecteinamycin was dissolved in DMSO, serially diluted to 10 concentrations (0.0313-32 μg/mL), and tested in a 96-well plate. […] Ecteinamycin and vancomycin were tested in triplicate. Six untreated media controls were included on each plate. For MRSA, MSSA, E. coli, and P. aeruginosa, the plates were incubated at 33° C. for 18 h. For C. difficile, the plate was incubated at 36° C. for 48 h anaerobically and then read visually using a mirror apparatus. All manipulations to the plate were done inside the anaerobe chamber. The MIC was determined as the lowest concentration that inhibited visible growth.

S. cerevisiae = experiment: MIC against S. cerevisiae; assay type: cell-based; conditions: Saccharomyces cerevisiae
[1] = test system: S. cerevisiae deletion mutants; experiment: Chemical genomic analysis in yeast deletion mutants; assay type: cell-based, Saccharomyces cerevisiae; conditions: 250 μg/mL; for Fold Change in abundance relative to solvent control: 48 h
Protocol: A chemical genomic analysis of ecteinamycin was performed as described previously (Fling, S.-Y.; Sofiyev, V.; Schneiderman, J.; Hirschfeld, A. F.; Victor, R. E.; Woods, K.; Piotrowski, J. S.; Deshpande, R.; Li, S. C.; de Voogd, N. J.; Myers, C. L.; Boone, C.; Andersen, R. J.; Turvey, S. E. ACS Chem. Biol. 2014, 9, 247-257.). The optimal inhibitory concentration of ecteinamycin for chemical genomic profiling (70-80% growth versus solvent control in YP-Glucose media after 24 h of growth) was determined. A concentration of 250 μg/mL inhibited growth within this range. Two hundred μL cultures of a pooled, genome wide collection of S. cerevisiae deletion mutants with 250 μg/mL ecteinamycin or a DMSO control were grown in triplicate for 48 h at 30° C. The genomic DNA was extracted using the Epicentre MasterPure™ Yeast DNA purification kit. Mutant-specific molecular barcodes were amplified with specially designed multiplex primers containing adapters for Illumina sequencing. The barcodes were sequenced using an Illumina HiSeq2500 Rapid Run platform. Three replicates of each condition (ecteinamycin vs. DMSO) were sequenced. The barcode counts for each yeast deletion mutant in the presence of ecteinamycin were normalized against the DMSO control conditions to generate a Z-score to define sensitivity or resistance of individual strains (the chemical genomic profile). In addition, differential abundance analysis was calculated for each mutant's response to the ecteinamycin versus DMSO using edgeR. The mutants with very low counts (<5) were filtered out before using the edgeR package (version 3.4.2) to calculate an adjusted P-value and log fold change for each mutant. A Bonferroni corrected hypergeometric distribution test was used to search for significant enrichment of GO terms among the top sensitive and resistant deletion mutants with a P-value less than 0.0001.^42 The chemical genomic profile of ecteinamycin was compared against existing chemical genomic datasets by Pearson correlation.
In parallel, chemical genomic profiling with the yeast, Saccharomyces cerevisiae, was used to investigate the mechanism of action of ecteinamycin. This method has been used for determining the mechanism of action and molecular target for many bioactive compounds, including natural products. Ecteinamcyin was screened against over four thousand deletion mutant yeast strains, genomic DNA was extracted, and mutant-specific DNA barcodes were amplified and sequenced by Illumina sequencing. Ecteinamycin sensitive and resistant mutants were determined by quantification of DNA-barcodes, providing a chemical genomic profile, which was used to evaluate the mechanism of action.

MRSA (ATCC #33591) = experiment: MIC, dilution antimicrobial susceptibility test; assay type: cell-based, Methicillin-resistant Staphylococcus aureus; conditions: Staphylococcus aureus, 18 h
Protocol: as §1

[2] = test system: C. difficile (ATCC BAA-1870); experiment: MIC, anaerobic dilution antimicrobial susceptibility test; assay type: cell-based; conditions: Clostridioides difficile
Protocol: as §1

SMILES: C=C1OC(=O)C(C(=O)CC2OC(C(C)C(O)C(CC)C(=O)C(C)(O)C3CCC(CC)(C4CCC(O)(C(C)OC)C(C)O4)O3)C(C)CC2C)=C1O (centres unmarked) [ecteinamycin]
- MIC (MSSA (ATCC #29213)): 0.125 µg/mL (≈ 0.176 µM)
- MIC (S. cerevisiae): 8 µg/mL (≈ 11.3 µM)
- growth versus solvent control ([1]; YP-Glucose media, 24 h): 70-80%
- Fold Change in abundance relative to solvent control ([1]; APL4 deletion mutant (sensitive)): 0.076
- Fold Change in abundance relative to solvent control ([1]; APM2 deletion mutant (sensitive)): 0.037
- Fold Change in abundance relative to solvent control ([1]; DRS2 deletion mutant (sensitive)): 0.040
- Fold Change in abundance relative to solvent control ([1]; EGT2 deletion mutant (resistant)): 3.564
- Fold Change in abundance relative to solvent control ([1]; HAL9 deletion mutant (resistant)): 3.379
- Fold Change in abundance relative to solvent control ([1]; IRC25 deletion mutant (resistant)): 3.732
- Fold Change in abundance relative to solvent control ([1]; MRH1 deletion mutant (resistant)): 4.129
- Fold Change in abundance relative to solvent control ([1]; MSS11 deletion mutant (resistant)): 2.585
- Fold Change in abundance relative to solvent control ([1]; PAR32 deletion mutant (sensitive)): 0.017
- Fold Change in abundance relative to solvent control ([1]; PHO2 deletion mutant (resistant)): 5.974
- Fold Change in abundance relative to solvent control ([1]; PHO84 deletion mutant (resistant)): 2.986
- Fold Change in abundance relative to solvent control ([1]; PRE9 deletion mutant (resistant)): 5.995
- Fold Change in abundance relative to solvent control ([1]; TRP4 deletion mutant (sensitive)): 0.136
- Fold Change in abundance relative to solvent control ([1]; UME6 deletion mutant (resistant)): 10.979
- Fold Change in abundance relative to solvent control ([1]; VPS38 deletion mutant (sensitive)): 0.087
- Fold Change in abundance relative to solvent control ([1]; YMR010W deletion mutant (sensitive)): 0.122
- Fold Change in abundance relative to solvent control ([1]; YOL162W deletion mutant (sensitive)): 0.145
- Fold Change in abundance relative to solvent control ([1]; YPL205C deletion mutant (resistant)): 4.953
- Fold Change in abundance relative to solvent control ([1]; YPR089W deletion mutant (sensitive)): 0.110
- Fold Change in abundance relative to solvent control ([1]; YPT7 deletion mutant (sensitive)): 0.016
- MIC (MRSA (ATCC #33591)): 0.125 µg/mL (≈ 0.176 µM)
- MIC ([2]; ATCCBAA1870): ≤ 0.031 µg/mL
- MIC ([2]; ATCCBAA1870, 36° C., 48 h anaerobically): ≤ 0.0313 µg/mL
